Measured values as given in patent US9963445B2, “Chemical compounds” (SYNGENTA PARTICIPATIONS AG, priority 2013, dated 2018).

Legend:
Format in all cases: in vivo
Setaria faberi [1] = experiment: Post-emergence herbicidal activity, glasshouse pot test; set-up: key: 0 = no damage to plant, 5 = total damage to plant; conditions: Application post-emergence, rate 1000 g/ha, evaluated after 13 days
How it was run: (§1)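 Seeds sown in standard soil in pots, grown 8 days in glasshouse (24/16 °C day/night, 14 h light, 65% humidity), then sprayed with aqueous solution from active ingredient formulated in acetone/water (50:50) with 0.5% Tween 20. Plants regrown under same conditions, watered twice daily; damage scored after 13 days (0 none–5 total).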

zea mays [2] = experiment: as above; set-up: key: 0 = no damage to plant, 5 = total damage to plant; conditions: Application post-emergence, rate 1000 g/ha, evaluated after 13 days
How it was run: as §1

Echinochloa crus-galli [3] = experiment: as above; set-up: key: 0 = no damage to plant, 5 = total damage to plant; conditions: Application post-emergence, rate 1000 g/ha, evaluated after 13 days
How it was run: as §1

Alopecurus myosuroides [4] = experiment: as above; set-up: key: 0 = no damage to plant, 5 = total damage to plant; conditions: Application post-emergence, rate 1000 g/ha, evaluated after 13 days
How it was run: as §1

Abutilon theophrasti [5] = experiment: as above; set-up: key: 0 = no damage to plant, 5 = total damage to plant; conditions: Application post-emergence, rate 1000 g/ha, evaluated after 13 days
How it was run: as §1

Amaranthus retroflexus [6] = experiment: as above; set-up: key: 0 = no damage to plant, 5 = total damage to plant; conditions: Application post-emergence, rate 1000 g/ha, evaluated after 13 days
How it was run: as §1

Setaria faberi [7] = experiment: Pre-emergence herbicidal activity, glasshouse pot test; conditions: pre-emergence spray, rate 1000 g/ha, evaluated after 13 days, scale 0-5
How it was run: (§2)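 Glasshouse conditions were 24/16 °C day/night with 14 h light and 65% humidity throughout. Soil was sprayed before emergence, one day after sowing, using an acetone/water (50:50) formulation with 0.5% Tween 20; injury was scored 0–5 after 13 days.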

zea mays [8] = experiment: as above; conditions: pre-emergence spray, rate 1000 g/ha, evaluated after 13 days, scale 0-5
How it was run: as §2

Echinochloa crus-galli [9] = experiment: as above; conditions: pre-emergence spray, rate 1000 g/ha, evaluated after 13 days, scale 0-5
How it was run: as §2

Alopecurus myosuroides [10] = experiment: as above; conditions: pre-emergence spray, rate 1000 g/ha, evaluated after 13 days, scale 0-5
How it was run: as §2

Abutilon theophrasti [11] = experiment: as above; conditions: pre-emergence spray, rate 1000 g/ha, evaluated after 13 days, scale 0-5
How it was run: as §2

Amaranthus retroflexus [12] = experiment: as above; conditions: pre-emergence spray, rate 1000 g/ha, evaluated after 13 days, scale 0-5
How it was run: as §2

Structure (SMILES)	SETFA herbicidal damage score (Setaria faberi [1])	ZEAMX herbicidal damage score (zea mays [2])	ECHCG herbicidal damage score (Echinochloa crus-galli [3])	ALOMY herbicidal damage score (Alopecurus myosuroides [4])	ABUTH herbicidal damage score (Abutilon theophrasti [5])	AMARE herbicidal damage score (Amaranthus retroflexus [6])	SETFA damage score, application pre-emergence (Setaria faberi [7])	ZEAMX damage score, application pre-emergence (zea mays [8])	ECHCG damage score, application pre-emergence (Echinochloa crus-galli [9])	ALOMY damage score, application pre-emergence (Alopecurus myosuroides [10])	ABUTH damage score, application pre-emergence (Abutilon theophrasti [11])	AMARE damage score, application pre-emergence (Amaranthus retroflexus [12])
C/C=C/c1cc(N2C(=O)C(Cl)=C(C)C2O)ncn1 (stereo not drawn) [CF6]	4	0	4	3	4	2	2	0	3	2	0	2
CCC1=C(Cl)C(=O)N(c2cc(C(C)(C)C#N)ncn2)C1O (stereo not drawn) [CF10]	5	5	5	5	5	5	4	4	4	2	5	5
CCOC(=O)C(C)(C)c1cc(N2C(=O)C(Cl)=C(C)C2O)ncn1 (stereo not drawn) [CF11]	5	3	5	5	5	2	4	2	5	2	5	4
CC1=C(Cl)C(=O)N(c2cc(C#N)ncn2)C1O (stereo not drawn) [CF13]	3	1	1	3	2	2	0	1	0	0	0	0
CC1=C(Cl)C(=O)N(c2cc(C(C)(C)C#N)ncn2)C1O (stereo not drawn) [CF14]	5	5	5	5	5	5	5	2	5	3	5	5
CC1=C(Cl)C(=O)N(c2cc(C(C)(F)F)ncn2)C1O (stereo not drawn) [CF15]	5	4	5	4	5	5	5	2	5	3	5	5
CCN(C)c1cc(N2C(=O)C(Cl)=C(C)C2O)ncn1 (stereo not drawn) [CF16]	5	1	5	4	3	3	4	1	2	1	2	2
CC1=C(Cl)C(=O)N(c2cc(C3(C#N)CC3)ncn2)C1O (stereo not drawn) [CF17]	5	3	5	4	5	5	5	2	3	3	2	5
CC1=C(Cl)C(=O)N(c2cc(C(C)C#N)ncn2)C1O (stereo not drawn) [CF18]	3	1	2	3	4	2	3	0	1	4	1	1
CC1=C(Cl)C(=O)N(c2cc(C(C)C)ncn2)C1O (stereo not drawn) [CF19]	5	3	5	3	5	5	4	2	4	2	5	5
CC1=C(Cl)C(=O)N(c2cc(N(C)C)ncn2)C1O (stereo not drawn) [CF20]	5	0	4	4	4	5	1	2	3	1	0	3
COc1cc(N2C(=O)C(Cl)=C(C)C2O)ncn1 (stereo not drawn) [CF21]	5	3	5	4	3	3	4	2	5	2	1	4
